Experiments:
[1] = test system: HT-29 cells; experiment: Cytotoxicity experiment: viability of HT-29 cells (CellTiter-Glo); type: cell-based; conditions: Homo sapiens, 72 hours, CTG analysis, read-out: HT-29 cell IC50
Experimental: (1) Cytotoxicity Experiment
The inhibitory effects of the example compounds on the viability of HT-29 cells were tested.
Cell line: HT-29 (cell type: adherent; number of cells/well: 3000; medium: RPMI-1640+10% FBS) was cultured under the condition of 37° C., 5% CO2, and 95% humidity.
Materials and Reagents: Fetal bovine serum (FBS, GBICO, Cat. No. 10099-141), CellTiter-Glo® Luminescent Cell Viability Assay (Promega, Cat. No. G7572), 96-well plate with transparent flat bottom and black walls (Corning®, Cat. No. 3603).
Instruments: SpectraMax multi-label microplate reader, MD, 2104-0010A; CO2 incubator, Thermo Scientific, Model 3100 Series; biosafety cabinet, Thermo Scientific, Model 1300 Series A2; inverted microscope, Olympus, CKX41SF; refrigerator, SIEMENS, KK25E76TI.
• 1) Cell culture and inoculation: i) cells in the logarithmic growth phase were harvested and counted using a […]. The cell viability was determined by trypan blue exclusion method to ensure that the cell viability was greater than 90%; ii) the cell concentration was adjusted; and 90 μL of the cell suspension was added into a 96-well plate, respectively; iii) the cells in the 96-well plate were cultured overnight under the condition of 37° C., 5% CO2 and 95% humidity. • 2) Drug dilution and dosing: i) the 10-fold drug solutions were prepared with a maximum concentration of 100 μM, which was diluted using a 3.16-fold serial gradient dilution, resulting in 9 concentrations. 10 μL of the drug solutions was added to each well of the 96-well plate inoculated with cells; and each drug concentration was tested in triplicate; ii) the cells in the 96-well plate added with drugs were cultured under the condition of 37° C., 5% CO2 and 95% humidity for 72 hours, and then CTG analysis was carried out. • 3) Plate reading at the end point: i) CTG reagent was thawed and the cell plate was equilibrated to room temperature for 30 minutes; ii) equal volume of the CTG solution was added to each well; iii) the cell plate was shaked on the orbital shaker for 5 minutes to lyse the cells; iv) the cell plate was placed at room temperature for 20 minutes to stabilize the cold light signal; v) the cold light values were read.
Data processing: GraphPad Prism 5.0 software was used to analyze the data, and the data was fitted using the non-linear S-curve regression to get a dose-effect curve, and IC50 values were calculated accordingly. Cell viability (%)=(Lum of test drug−Lum of medium control)/(Lum of cell control−Lum of medium control)×100%.

[2] = Metabolic stability evaluation in mouse liver microsomes; type: in vitro ADME; conditions: SD, pH 7.4, mouse liver microsomes 0.5 mg/mL, compound 1 μM; for microsomal CLint at 1 μM: liver intrinsic clearance; for half-life at 1 μM: NADPH, 37° C.
Experimental: (2) Metabolic Stability Evaluation
Microsome assay: mouse liver microsomes: 0.5 mg/mL, Xenotech; coenzyme (NADPH/NADH): 1 mM, Sigma Life Science; magnesium chloride: 5 mM, 100 mM phosphate buffer (pH 7.4).
Preparation of stock solutions: Powder of the example compounds were accurately weighed and dissolved in DMSO to 5 mM respectively.
Preparation of phosphate buffer (100 mM, pH7.4): A pre-prepared 0.5M potassium dihydrogen phosphate (150 mL) was mixed with 0.5M dibasic potassium phosphate (700 mL). The pH of the mixture was adjusted to 7.4 with 0.5M dibasic potassium phosphate solution. The mixture was diluted 5-fold with ultrapure water before use, and magnesium chloride was added to obtain a phosphate buffer (100 mM) containing 100 mM potassium phosphate, 3.3 mM magnesium chloride, pH 7.4.
A NADPH regeneration system solution (containing 6.5 mM NADP, 16.5 mM G-6-P, 3 U/mL G-6-P D, 3.3 mM magnesium chloride) was prepared and placed on wet ice prior to use.
Preparation of stop solution: an acetonitrile solution containing 50 ng/mL propranolol hydrochloride and 200 ng/mL tolbutamide (internal standard). 25057.5 μL of phosphate buffer (pH 7.4) was taken into a 50 mL centrifuge tube, to which 812.5 μL of SD mouse liver microsomes were added, and mixed to obtain a liver microsome dilution with a protein concentration of 0.625 mg/mL.
Incubation of the samples: The stock solutions of the respective compounds were respectively diluted to 0.25 mM with an aqueous solution containing 70% acetonitrile, and used as a working solution, ready for use. 398 μL of the dilutions of mouse liver microsomes were added to 96-well incubation plates (N=2), respectively, and 2 μL of 0.25 mM working solution was added respectively and mixed.
Metabolic stability assay: 300 μL of pre-chilled stop solution was added to each well of 96-well deep well plates and placed on ice as stop plates. The 96-well incubation plates and NADPH regeneration system were placed in a 37° C. water bath, shaken at 100 rpm and pre-incubated for 5 min. 80 μL of incubation solution was taken out from each well of the incubation plates and added to the stop plates, mixed, and replenished with 20 μL of NADPH regeneration system solution as a 0-min sample. 80 μL of NADPH regeneration system solution was added to each well of the incubation plates to start the reaction and start counting. […] Separately, 100 μL of the reaction solutions was taken at 10, 30, and 90 min after the reaction, respectively, added to stop plates, and vortexed for 3 minutes to terminate the reaction. The stop plates were centrifuged at 5000×g at 4° C. for 10 min. 100 μL of the supernatant was added to a 96-well plate to which 100 μL of distilled water was previously added, mixed, and analyzed by LC-MS/MS.
Data analysis: The peak areas of the corresponding compounds and internal standard were detected by LC-MS/MS system, and the ratio of the peak area of the compounds to the internal standard was calculated.

| Compound | IC50 [1] [pM] | microsomal CLint at 1 μM [2] [µL/min/mg] | half-life at 1 μM [2] [h] |
| --- | --- | --- | --- |
| [2H]C([2H])([2H])n1cnc2c(F)c(Nc3ccc(Br)cc3Cl)c(C(=O)NOCCO)cc21 [A-1, 6-(4-bromo-2-chloro-phenylamino)-7-fluoro-3-(methyl-d3)-3H-benzimidazole-5-carboxylic acid (2-hydroxyethoxy)-amide] | < 500 | 19.7 | 1.17 |
| [2H]C([2H])(O)CONC(=O)c1cc2c(ncn2C)c(F)c1Nc1ccc(Br)cc1Cl [A-4, 6-(4-bromo-2-chlorophenylamino)-7-fluoro-3-methyl-3H-benzimidazole-5-carboxylic acid (2-hydroxyethoxy-2,2-d2)amide] | < 500 | 24.6 | 0.94 |
| [2H]C([2H])(O)CONC(=O)c1cc2c(ncn2C([2H])([2H])[2H])c(F)c1Nc1ccc(Br)cc1Cl [A-5, 6-(4-bromo-2-chlorophenylamino)-7-fluoro-3-(methyl-d3)-3H-benzimidazole-5-carboxylic acid (2-hydroxyethoxy-2,2-d2)amide] | < 500 | 20.9 | 1.11 |
| [2H]C([2H])(O)C([2H])([2H])ONC(=O)c1cc2c(ncn2C)c(F)c1Nc1ccc(Br)cc1Cl [A-6, 6-(4-bromo-2-chlorophenylamino)-7-fluoro-3-methyl-3H-benzimidazole-5-carboxylic acid (2-hydroxyethoxy-1,1,2,2-d4)amide] | – | 19.8 | 1.17 |
| Cn1cnc2c(F)c(Nc3ccc(Br)cc3Cl)c(C(=O)NOCCO)cc21 [Selumetinib, 6-(4-bromo-2-chloro-phenylamino)-7-fluoro-3-methyl-3H-benzimidazole-5-carboxylic acid (2-hydroxy-ethoxy)-amide, reference compound] | < 500 | 23.6 | 0.978 |

— patent US12116348B2, “Substituted benzimidazole compound and composition comprising same” (Shenzhen TargetRx, Inc., priority 2017, dated 2024)
